# From patent publication EP0538297B9, “ANTIVIRAL TETRAHYDROIMIDAZO 1,4]BENZODIAZEPIN-2-(THIO)ONES” (JANSSEN PHARMACEUTICA N.V., priority 1990, dated 1992)
# Assays:
# HIV = assay: Inhibition of HIV-induced cytopathic effect in MT-4 cells (MTT); type: cell-based; settings: for EC50: Human immunodeficiency virus 1, MT4, dose achieving 50% protection of HIV-infected MT-4 cells, MTT, 540 nm, read-out: ED50 (50% effective dose); for SI (selectivity index): ratio of CD50 to ED50
# Description: (§1) A rapid, sensitive and automated assay procedure was used for the in-vitro evaluation of anti-HIV agents. An […] T4-cell line, MT-4, which was previously shown (Koyanagi et al., Int. J. Cancer, 36, 445-451, 1985) to be highly susceptible to and permissive for HIV infection, served as the target cell line. Inhibition of the HIV-induced cytopathic effect was used as the end point. The viability of both HIV- and mock-infected cells was assessed spectrophotometrically via the in-situ reduction of 3-(4,5-dimethylthiazol-2-yl)-2,5-diphenyltetrazolium bromide (MTT). The 50% cytotoxic dose (CD50 in µg/ml) was defined as the concentration of compound that reduced the absorbance of the mock-infected control sample by 50%. The percent protection achieved by the compound in HIV-infected cells was calculated by the following formula: ((ODT )HIV - (ODC )HIV)/((ODC )MOCK - (ODC )HIV) [formula] expressed in %, whereby (ODT)HIV is the optical density measured with a given concentration of the test compound in HIV-infected cells; (ODC)HIV is the optical density measured for the control untreated HIV-infected cells; (ODC)MOCK is the optical density measured for the control untreated mock-infected cells; all optical density values were determined at 540 nm. The dose achieving 50% protection according to the above formula was defined as the 50% effective dose (ED50 in µg/ml). The ratio of CD50 to ED50 was defined as the selectivity index (SI).
# in vitro = type: cell-based; settings: human, mt-4 cells
# Description: as §1
EC50 (HIV) [µg/mL],Compound,SI (selectivity index) (HIV),CC50 (in vitro) [µg/mL]
0.032,CCC(=CCN1Cc2cc(Cl)cc3[nH]c(=O)n(c23)C[C@@H]1C)CC [compound 2],>312,> 10
0.038,"CCC(=CCN1Cc2c(C)ccc3[nH]c(=O)n(c23)C[C@@H]1C)CC [compound 5, (+)-(S)-6-(3-ethyl-2-pentenyl)-4,5,6,7-tetrahydro-5,8-dimethylimidazo-[4,5,1-jk][1,4]benzodiazepin-2(1H)-one]",370,14.3
0.006,"CCC(=CCN1Cc2cc(Cl)cc3[nH]c(=S)n(c23)C[C@@H]1C)CC.Cl [compound 7, (-)-(S)-9-chloro-6-(3-ethyl-2-pentenyl)-4,5,6,7-tetrahydro-5-methylimidazo[4,5,1-jk][1,4]benzodiazepine-2(1H)-thione monohydrochloride]",850,5.2
